# System: not given
# Test: not given
# Conditions: toxicity equivalent factor of the dioxins used; cited from earlier work
row,Compound,TEF value
1,"Clc1cc2c(cc1Cl)Oc1cc(Cl)c(Cl)cc1O2 [2,3,7,8-TeCDD, 2,3,7,8-tetrachlorozibenzo-p-dioxin]",1
2,"Clc1cc2c(cc1Cl)Oc1c(Cl)c(Cl)c(Cl)c(Cl)c1O2 [1,2,3,4,7,8-HxCDD]",0.1
3,"Clc1cc2oc3c(Cl)c(Cl)c(Cl)c(Cl)c3c2c(Cl)c1Cl [1,2,3,4,7,8,9-HpCDF]",0.01
4,"Clc1cc2c(cc1Cl)Oc1c(cc(Cl)c(Cl)c1Cl)O2 [1,2,3,7,8-PeCDD]",1
5,"Clc1cc2c(oc3c(Cl)c(Cl)c(Cl)c(Cl)c32)c(Cl)c1Cl [1,2,3,4,6,7,8-HpCDF]",0.01
6,"Clc1cc2c(c(Cl)c1Cl)Oc1c(Cl)c(Cl)c(Cl)c(Cl)c1O2 [1,2,3,4,6,7,8-HpCDD]",0.01
7,"Clc1cc2c(c(Cl)c1Cl)Oc1c(cc(Cl)c(Cl)c1Cl)O2 [1,2,3,7,8,9-HxCDD]",0.1
8,Clc1c(Cl)c(Cl)c2c(oc3c(Cl)c(Cl)c(Cl)c(Cl)c32)c1Cl [OCDF],0.0001

# System: anti-dioxin antibody (monoclonal antibody) to 1,2,3,7,8-PeCDF
# Test: not given
# Assay type: binding, mouse
# Conditions: Table 2, dioxins having TEF; solid-phase antigen (IIa); antibody to 1,2,3,7,8-PeCDF
# Protocol: (§1) First, the immune antigen or the compound (IIa) conjugated with BSA that was produced in Example 2 was diluted with PBS to 1 μg/ml, and divided into each well of a 96-well assay plate (manufactured by Costar, Cat. No. 3590) in an amount of 50 μl. Then, the plate was sealed and allowed to stand at room temperature for one hour. Then, each well was washed with PBS containing 0.005% of Tween 20 three times. Next, 300 μl of Block Ace (manufactured by Snow Brand Milk Products Co., Ltd.) diluted with distilled water to a concentration of 25% was supplied to each well, and the plate was sealed and allowed to stand at 37° C. for two hours. Each well was washed with PBS containing 0.005% of Tween 20 three times. Then, a 25 μl of the dioxin compound solution of a final concentration of 5×10^−7 M was added to each well. The dioxin compound solution was prepared by diluting the dioxin with a dilution solvent comprising 20% DMSO and 0.01% of Triton X100. As controls, a dilution solvent in an amount of 25 μl was added to each well. Immediately after the addition of the dioxin compound solution or the dilution solvent, 25 μl of an antibody solution diluted with PBS containing 1 mg/ml of BSA was added to each well. The assay plate was stand at room temperature for one hour with slightly shaking.
# (§2) After washing with PBS containing 0.005% of Tween 20 three times, 50 μl of the diluted HRP-labeled goat anti-mouse IgG (H+L) antibody (produced by affinity purification) was added to each well. The diluted HRP-labeled antibody was prepared by diluting the purchased HRP-labeled antibody to 2000 times as much with 10% Block Ace. The plate was allowed to stand at room temperature for one hour, followed by washing with PBS containing 0.005% of Tween 20 three times. Then, 50 μl of a HRP substrate, TMB (manufactured by KPL Co., Ltd.), was added to each well and allowed to stand at room temperature for 5 to 10 min. Then, 5 μl of a 1 M phosphate solution was added to each well, and the absorbance at a wavelength of 455 nm (655 nm for the reference) was measured with a spectrophotometer for a microtiter. The reactivity was evaluated by obtaining the absorbance (B0) at the time when the dioxin compound is not added, which is a control (diluent) and the absorbance (B) at the time when the dioxin compound is added. The inhibition rate was measured based on the following equation. Inhibition rate={(B0−B)/B0}×100 (%)
# An anti-dioxin antibody (monoclonal antibody) to 1,2,3,7,8-PeCDF is used as an antibody. A haptenized product of a solid-phase antigen 6-(2,4,5-trichlorophenoxy) hexanoic acid amide derivative (IIa) and the chlorine-containing organic compounds in Tables 2 and 3 were allowed to compete with each other to this anti-dioxin antibody so that a competitive reaction was effected in the same manner as in Example 3. Then, the cross-reactivity was examined.
row,Compound,cross reaction [%]
1,"Clc1cc2c(cc1Cl)Oc1cc(Cl)c(Cl)cc1O2 [2,3,7,8-TeCDD, 2,3,7,8-tetrachlorozibenzo-p-dioxin]",1.1
2,"Clc1cc2c(cc1Cl)Oc1c(Cl)c(Cl)c(Cl)c(Cl)c1O2 [1,2,3,4,7,8-HxCDD]",24.8
3,"Clc1cc2oc3c(Cl)c(Cl)c(Cl)c(Cl)c3c2c(Cl)c1Cl [1,2,3,4,7,8,9-HpCDF]",28.7
4,"Clc1cc2c(cc1Cl)Oc1c(cc(Cl)c(Cl)c1Cl)O2 [1,2,3,7,8-PeCDD]",29.9
5,"Clc1cc2c(oc3c(Cl)c(Cl)c(Cl)c(Cl)c32)c(Cl)c1Cl [1,2,3,4,6,7,8-HpCDF]",17.9
6,"Clc1cc2c(c(Cl)c1Cl)Oc1c(Cl)c(Cl)c(Cl)c(Cl)c1O2 [1,2,3,4,6,7,8-HpCDD]",17.0
7,"Clc1cc2c(c(Cl)c1Cl)Oc1c(cc(Cl)c(Cl)c1Cl)O2 [1,2,3,7,8,9-HxCDD]",39.8
8,Clc1c(Cl)c(Cl)c2c(oc3c(Cl)c(Cl)c(Cl)c(Cl)c32)c1Cl [OCDF],8.0

# System: monoclonal antibody of clone C-3 (anti-dioxin antibody)
# Test: Competitive EIA: inhibition of binding of clone C-3 monoclonal antibody to solid-phase antigen by free dioxin
# Design: species or system mouse
# Conditions: solid-phase antigen * (haptenized product of 6-(2,4,5-trichlorophenoxy) hexanoic acid amide derivative IIa), dioxin compound 5×10^−7 M
# Protocol: (§3) Using various monoclonal antibodies, the specificity of the monoclonal antibodies to dioxin isomers was examined. The monoclonal antibodies were prepared in the following manner. An antibody-producing cell was injected into the abdominal cavity of a pristane-pretreated mouse. Th ascites fluid in the abdominal cavity caused by the growth of the cells was collected, and then a monoclonal antibody was purified by affinity chromatography using a protein G-Sepharose (manufactured by BIO-RAD Co.) as a carrier. Using three antibody-producing clones C-1, C-2 and C-3, respective monoclonal antibodies were prepared. The clones C-1, C-2 and C-3 produce monoclonal antibodies with respect to dibenzodioxin having chlorine atom at the 2-, 3-, 7-, and 8-positions.
# (§4) To evaluate the specificity of the monoclonal antibody was performed according to the following principles. A solid-phase antigen (competitor) and a free dioxin (ligand) are allowed to compete with each other with respect to a free monoclonal antibody (anti-dioxin antibody). If the reactivity of the monoclonal antibody and the dioxin is higher than that of the monoclonal antibody and the solid-phase antigen, the binding of the monoclonal antibody to the solid-phase antigen is reduced. This reduction of the binding of the monoclonal antibody to the solid-phase antigen can be measured by color development method. This phenomenon can be applied to evaluate the specificity.
# as §1, §2
# (§5) Evaluation was such that the larger this inhibition rate is, the higher the specificity of the anti-dioxin antibody to the dioxin compound.
row,Compound,Inhibition rate [%]
1,"Clc1cc2c(cc1Cl)Oc1cc(Cl)c(Cl)cc1O2 [2,3,7,8-TeCDD, 2,3,7,8-tetrachlorozibenzo-p-dioxin]",−3.4
2,"Clc1cc2c(cc1Cl)Oc1c(Cl)c(Cl)c(Cl)c(Cl)c1O2 [1,2,3,4,7,8-HxCDD]",−2.3
3,"Clc1cc2oc3c(Cl)c(Cl)c(Cl)c(Cl)c3c2c(Cl)c1Cl [1,2,3,4,7,8,9-HpCDF]",11.3
4,"Clc1cc2c(cc1Cl)Oc1c(cc(Cl)c(Cl)c1Cl)O2 [1,2,3,7,8-PeCDD]",31.2
5,"Clc1cc2c(oc3c(Cl)c(Cl)c(Cl)c(Cl)c32)c(Cl)c1Cl [1,2,3,4,6,7,8-HpCDF]",3.4
6,"Clc1cc2c(c(Cl)c1Cl)Oc1c(Cl)c(Cl)c(Cl)c(Cl)c1O2 [1,2,3,4,6,7,8-HpCDD]",2.1
7,"Clc1cc2c(c(Cl)c1Cl)Oc1c(cc(Cl)c(Cl)c1Cl)O2 [1,2,3,7,8,9-HxCDD]",28.6
8,Clc1c(Cl)c(Cl)c2c(oc3c(Cl)c(Cl)c(Cl)c(Cl)c32)c1Cl [OCDF],4.9

# Same assay, conditions: solid-phase antigen immunogen 3, dioxin compound final concentration 5×10^−7 M
row,Compound,Inhibition rate [%]
1,"Clc1cc2c(cc1Cl)Oc1cc(Cl)c(Cl)cc1O2 [2,3,7,8-TeCDD, 2,3,7,8-tetrachlorozibenzo-p-dioxin]",−0.2
2,"Clc1cc2c(cc1Cl)Oc1c(Cl)c(Cl)c(Cl)c(Cl)c1O2 [1,2,3,4,7,8-HxCDD]",−2.5
3,"Clc1cc2oc3c(Cl)c(Cl)c(Cl)c(Cl)c3c2c(Cl)c1Cl [1,2,3,4,7,8,9-HpCDF]",6.1
4,"Clc1cc2c(cc1Cl)Oc1c(cc(Cl)c(Cl)c1Cl)O2 [1,2,3,7,8-PeCDD]",5.4
5,"Clc1cc2c(oc3c(Cl)c(Cl)c(Cl)c(Cl)c32)c(Cl)c1Cl [1,2,3,4,6,7,8-HpCDF]",−2.7
6,"Clc1cc2c(c(Cl)c1Cl)Oc1c(Cl)c(Cl)c(Cl)c(Cl)c1O2 [1,2,3,4,6,7,8-HpCDD]",0.4
7,"Clc1cc2c(c(Cl)c1Cl)Oc1c(cc(Cl)c(Cl)c1Cl)O2 [1,2,3,7,8,9-HxCDD]",6.7
8,Clc1c(Cl)c(Cl)c2c(oc3c(Cl)c(Cl)c(Cl)c(Cl)c32)c1Cl [OCDF],1.3

# System: monoclonal antibody of clone C-1 (anti-dioxin antibody)
# Test: Competitive EIA: inhibition of binding of clone C-1 monoclonal antibody to solid-phase antigen by free dioxin
# Design: species or system mouse
# Conditions: solid-phase antigen * (haptenized product of 6-(2,4,5-trichlorophenoxy) hexanoic acid amide derivative IIa), dioxin compound 5×10^−7 M
# Protocol: as §3, §4, §1, §2, §5
row,Compound,Inhibition rate [%]
1,"Clc1cc2c(cc1Cl)Oc1cc(Cl)c(Cl)cc1O2 [2,3,7,8-TeCDD, 2,3,7,8-tetrachlorozibenzo-p-dioxin]",7.4
2,"Clc1cc2c(cc1Cl)Oc1c(Cl)c(Cl)c(Cl)c(Cl)c1O2 [1,2,3,4,7,8-HxCDD]",14.1
3,"Clc1cc2oc3c(Cl)c(Cl)c(Cl)c(Cl)c3c2c(Cl)c1Cl [1,2,3,4,7,8,9-HpCDF]",7.1
4,"Clc1cc2c(cc1Cl)Oc1c(cc(Cl)c(Cl)c1Cl)O2 [1,2,3,7,8-PeCDD]",46.2
5,"Clc1cc2c(oc3c(Cl)c(Cl)c(Cl)c(Cl)c32)c(Cl)c1Cl [1,2,3,4,6,7,8-HpCDF]",7.5
6,"Clc1cc2c(c(Cl)c1Cl)Oc1c(Cl)c(Cl)c(Cl)c(Cl)c1O2 [1,2,3,4,6,7,8-HpCDD]",1.4
7,"Clc1cc2c(c(Cl)c1Cl)Oc1c(cc(Cl)c(Cl)c1Cl)O2 [1,2,3,7,8,9-HxCDD]",19.1
8,Clc1c(Cl)c(Cl)c2c(oc3c(Cl)c(Cl)c(Cl)c(Cl)c32)c1Cl [OCDF],27.0

# Same assay, conditions: solid-phase antigen immunogen 1, dioxin compound final concentration 5×10^−7 M
row,Compound,Inhibition rate [%]
1,"Clc1cc2c(cc1Cl)Oc1cc(Cl)c(Cl)cc1O2 [2,3,7,8-TeCDD, 2,3,7,8-tetrachlorozibenzo-p-dioxin]",0.4
2,"Clc1cc2c(cc1Cl)Oc1c(Cl)c(Cl)c(Cl)c(Cl)c1O2 [1,2,3,4,7,8-HxCDD]",−1.4
3,"Clc1cc2oc3c(Cl)c(Cl)c(Cl)c(Cl)c3c2c(Cl)c1Cl [1,2,3,4,7,8,9-HpCDF]",5.8
4,"Clc1cc2c(cc1Cl)Oc1c(cc(Cl)c(Cl)c1Cl)O2 [1,2,3,7,8-PeCDD]",21.3
5,"Clc1cc2c(oc3c(Cl)c(Cl)c(Cl)c(Cl)c32)c(Cl)c1Cl [1,2,3,4,6,7,8-HpCDF]",−0.9
6,"Clc1cc2c(c(Cl)c1Cl)Oc1c(Cl)c(Cl)c(Cl)c(Cl)c1O2 [1,2,3,4,6,7,8-HpCDD]",1.5
7,"Clc1cc2c(c(Cl)c1Cl)Oc1c(cc(Cl)c(Cl)c1Cl)O2 [1,2,3,7,8,9-HxCDD]",15.7
8,Clc1c(Cl)c(Cl)c2c(oc3c(Cl)c(Cl)c(Cl)c(Cl)c32)c1Cl [OCDF],1.1

# System: monoclonal antibody of clone C-2 (anti-dioxin antibody)
# Test: Competitive EIA: inhibition of binding of clone C-2 monoclonal antibody to solid-phase antigen by free dioxin
# Design: species or system mouse
# Conditions: solid-phase antigen * (haptenized product of 6-(2,4,5-trichlorophenoxy) hexanoic acid amide derivative IIa), dioxin compound 5×10^−7 M
# Protocol: as §3, §4, §1, §2, §5
row,Compound,Inhibition rate [%]
1,"Clc1cc2c(cc1Cl)Oc1cc(Cl)c(Cl)cc1O2 [2,3,7,8-TeCDD, 2,3,7,8-tetrachlorozibenzo-p-dioxin]",7.7
2,"Clc1cc2c(cc1Cl)Oc1c(Cl)c(Cl)c(Cl)c(Cl)c1O2 [1,2,3,4,7,8-HxCDD]",19.1
3,"Clc1cc2oc3c(Cl)c(Cl)c(Cl)c(Cl)c3c2c(Cl)c1Cl [1,2,3,4,7,8,9-HpCDF]",7.5
4,"Clc1cc2c(cc1Cl)Oc1c(cc(Cl)c(Cl)c1Cl)O2 [1,2,3,7,8-PeCDD]",70.4
5,"Clc1cc2c(oc3c(Cl)c(Cl)c(Cl)c(Cl)c32)c(Cl)c1Cl [1,2,3,4,6,7,8-HpCDF]",51.4
6,"Clc1cc2c(c(Cl)c1Cl)Oc1c(Cl)c(Cl)c(Cl)c(Cl)c1O2 [1,2,3,4,6,7,8-HpCDD]",−3.2
7,"Clc1cc2c(c(Cl)c1Cl)Oc1c(cc(Cl)c(Cl)c1Cl)O2 [1,2,3,7,8,9-HxCDD]",41.9
8,Clc1c(Cl)c(Cl)c2c(oc3c(Cl)c(Cl)c(Cl)c(Cl)c32)c1Cl [OCDF],7.2

# Same assay, conditions: solid-phase antigen immunogen 2, dioxin compound final concentration 5×10^−7 M
row,Compound,Inhibition rate [%]
1,"Clc1cc2c(cc1Cl)Oc1cc(Cl)c(Cl)cc1O2 [2,3,7,8-TeCDD, 2,3,7,8-tetrachlorozibenzo-p-dioxin]",−3.0
2,"Clc1cc2c(cc1Cl)Oc1c(Cl)c(Cl)c(Cl)c(Cl)c1O2 [1,2,3,4,7,8-HxCDD]",−9.4
3,"Clc1cc2oc3c(Cl)c(Cl)c(Cl)c(Cl)c3c2c(Cl)c1Cl [1,2,3,4,7,8,9-HpCDF]",27.7
4,"Clc1cc2c(cc1Cl)Oc1c(cc(Cl)c(Cl)c1Cl)O2 [1,2,3,7,8-PeCDD]",45.7
5,"Clc1cc2c(oc3c(Cl)c(Cl)c(Cl)c(Cl)c32)c(Cl)c1Cl [1,2,3,4,6,7,8-HpCDF]",6.8
6,"Clc1cc2c(c(Cl)c1Cl)Oc1c(Cl)c(Cl)c(Cl)c(Cl)c1O2 [1,2,3,4,6,7,8-HpCDD]",−12.4
7,"Clc1cc2c(c(Cl)c1Cl)Oc1c(cc(Cl)c(Cl)c1Cl)O2 [1,2,3,7,8,9-HxCDD]",30.6
8,Clc1c(Cl)c(Cl)c2c(oc3c(Cl)c(Cl)c(Cl)c(Cl)c32)c1Cl [OCDF],18.1

# From patent US7166440B2, “2,4,5-trichlorophenoxyalkyl carboxylic acid and a method for determining dioxins using the same” (priority 2003, dated 2007)
